From PubChem BioAssay AID224 (DTP/NCI, 2004)
Where “and” joins values, the source holds several entries; their conditions need not be identical. Identical values can stand only once. Inconclusive results and toxic doses are left out.

System: P335 leukemia ip, BDF1 mice, survival T/C %
Assay: NCI In Vivo Anticancer Drug Screen. Data for tumor model P335 Leukemia (intraperitoneal) in B6D2F1 (BDF1) mice
Conditions: endpoint: mean survival time, higher = longer survival
Procedure: The antitumor activity of compounds was measured in mice bearing transplantable tumors. Survival or tumor size were measured and the results are expressed as the measurement made in the treated group (T) divided by the measurement made in the vehicle treated control group (C). The tumor model used in this assay is P335 Leukemia (intraperitoneal) in B6D2F1 (BDF1) mice

[1] = dose: 0.25 mg/kg/injection, schedule: Q01DX Z (ip), vehicle: carboxymethylcellulose (CMC)
[2] = dose: 0.5 mg/kg/injection, schedule: Q01DX Z (ip), vehicle: carboxymethylcellulose (CMC)
[3] = dose: 50.0 mg/kg/injection, schedule: Q01DX Z (ip), vehicle: other
[4] = dose: 31.25 mg/kg/injection, schedule: Q01DX Z (ip), vehicle: carboxymethylcellulose (CMC)
[5] = dose: 62.5 mg/kg/injection, schedule: Q01DX Z (ip), vehicle: carboxymethylcellulose (CMC)
[6] = dose: 125.0 mg/kg/injection, schedule: Q01DX Z (ip), vehicle: carboxymethylcellulose (CMC)
[7] = dose: 16.0 mg/kg/injection, schedule: Q01DX Z (ip), vehicle: carboxymethylcellulose (CMC)
[8] = dose: 31.0 mg/kg/injection, schedule: Q01DX Z (ip), vehicle: carboxymethylcellulose (CMC)
[9] = dose: 187.5 mg/kg/injection, schedule: Q01DX Z (ip), vehicle: saline
[10] = dose: 375.0 mg/kg/injection, schedule: Q01DX Z (ip), vehicle: saline
[11] = dose: 750.0 mg/kg/injection, schedule: Q01DX Z (ip), vehicle: saline
[12] = dose: 16.0 mg/kg/injection, schedule: Q01DX Z (sc), vehicle: steriod suspending solution
[13] = dose: 125.0 mg/kg/injection, schedule: Q01DX Z (sc), vehicle: steriod suspending solution
[14] = dose: 500.0 mg/kg/injection, schedule: Q01DX Z (sc), vehicle: steriod suspending solution
[15] = dose: 8.0 mg/kg/injection, schedule: Q01DX Z (ip), vehicle: carboxymethylcellulose (CMC)
[16] = dose: 0.12 mg/kg/injection, schedule: Q01DX Z (ip), vehicle: carboxymethylcellulose (CMC)

With `NC(=O)c1cn(C2OC(CO)C(O)C2O)c2ncnc(N)c12` (configuration not stated) the T/C [1] was 101 % of control, the T/C [2] was 86 % of control and the T/C (dose: 16.0 micrograms/kg/injection, schedule: Q01DX Z (ip), vehicle: carboxymethylcellulose (CMC)) was 110 % of control. For the same compound, the T/C (dose: 31.0 micrograms/kg/injection, schedule: Q01DX Z (ip), vehicle: carboxymethylcellulose (CMC)) was 104 % of control and the T/C (dose: 63.0 micrograms/kg/injection, schedule: Q01DX Z (ip), vehicle: carboxymethylcellulose (CMC)) was 105 % of control.

For `Cc1n[nH]c(=O)[nH]c1=O`, the T/C [3] was 97 % of control, the T/C (dose: 100.0 mg/kg/injection, schedule: Q01DX Z (ip), vehicle: other) was 97 % of control and the T/C (dose: 200.0 mg/kg/injection, schedule: Q01DX Z (ip), vehicle: other) was 102 % of control. For the same compound, the T/C (dose: 400.0 mg/kg/injection, schedule: Q01DX Z (ip), vehicle: other) was 103 % of control.

For `CCn1cnc2c(=S)nc[nH]c21`, the T/C (dose: 15.6 mg/kg/injection, schedule: Q01DX Z (ip), vehicle: carboxymethylcellulose (CMC)) was 96 % of control.

With `CCCCCCCCCCCCNCCCCCCCCCCCC` the T/C (dose: 3.75 mg/kg/injection, schedule: Q01DX Z (ip), vehicle: carboxymethylcellulose (CMC)) was 91 % of control, the T/C (dose: 7.5 mg/kg/injection, schedule: Q01DX Z (ip), vehicle: carboxymethylcellulose (CMC)) was 115 % of control and the T/C (dose: 15.0 mg/kg/injection, schedule: Q01DX Z (ip), vehicle: carboxymethylcellulose (CMC)) was 92 % of control. For the same compound, the T/C (dose: 30.0 mg/kg/injection, schedule: Q01DX Z (ip), vehicle: carboxymethylcellulose (CMC)) was 88 % of control.

With `CN(C)c1nc(N(C)C)nc(N(C)C)n1` the T/C [4] was 113 % of control, the T/C [5] was 111 % of control and the T/C [6] was 113 % of control. The T/C (dose: 500.0 mg/kg/injection, schedule: Q01DX Z (ip), vehicle: carboxymethylcellulose (CMC)) was 111 % of control and the T/C (dose: 1000.0 mg/kg/injection, schedule: Q01DX Z (ip), vehicle: carboxymethylcellulose (CMC)) was 93 % of control.

`OCC1OC(n2cnc3c(=S)nc[nH]c32)C(O)C1O` (configuration not stated) was tested, and the T/C [7] was 87 % of control and 90 % of control, the T/C [8] was 109 % of control and 110 % of control and the T/C [5] was 98 % of control. For the same compound, the T/C [6] was 93 % of control.

In the case of `Nc1nc(SCc2ccccc2)c2[nH]cnc2n1`, the T/C (dose: 2.35 mg/kg/injection, schedule: Q01DX Z (ip), vehicle: carboxymethylcellulose (CMC)) was 87 % of control, the T/C (dose: 9.4 mg/kg/injection, schedule: Q01DX Z (ip), vehicle: carboxymethylcellulose (CMC)) was 108 % of control and the T/C (dose: 18.75 mg/kg/injection, schedule: Q01DX Z (ip), vehicle: carboxymethylcellulose (CMC)) was 87 % of control.

In the case of `CC(=O)OCC1OC(n2ncc(=O)[nH]c2=O)C(OC(C)=O)C1OC(C)=O` (configuration not stated), the T/C (dose: 25.0 mg/kg/injection, schedule: Q01DX Z (ip), vehicle: other) was 120 % of control, the T/C [3] was 109 % of control and the T/C (dose: 99.0 mg/kg/injection, schedule: Q01DX Z (ip), vehicle: other) was 114 % of control. For the same compound, the T/C (dose: 187.5 mg/kg/injection, schedule: Q01DX Z (ip), vehicle: other) was 124 % of control and the T/C (dose: 188.0 mg/kg/injection, schedule: Q01DX Z (ip), vehicle: other) was 114 % of control.

For `N#Cc1cn(C2OC(CO)C(O)C2O)c2ncnc(N)c12` (configuration not stated), the T/C [1] was 106 % of control and the T/C [2] was 98 % of control.

In the case of `C[C@H](N)C(=O)N[C@@H]1[C@H]2C(=C(O)C[C@@H](O)[C@@H]2O)C(=O)O[C@@H]1C`, the T/C (dose: 23.43 mg/kg/injection, schedule: Q01DX Z (ip), vehicle: saline) was 114 % of control, the T/C [9] was 168 % of control and the T/C [10] was 151 % of control and 182 % of control. For the same compound, the T/C [11] was 191 % of control.

In the case of `O=NN(CCCl)C(=O)NCCCl`, the T/C (dose: 16.0 mg/kg/injection, schedule: Q01DX Z (ip), vehicle: saline) was 95 % of control.

For `CC(=O)O[C@]1(C(C)=O)CC[C@H]2[C@@H]3C[C@H](C)C4=CC(=O)C=C[C@]4(C)[C@@]3(F)[C@@H](O)C[C@@]21C`, the T/C (dose: 0.63 mg/kg/injection, schedule: Q01DX Z (sc), vehicle: steriod suspending solution) was 107 % of control, the T/C (dose: 1.25 mg/kg/injection, schedule: Q01DX Z (sc), vehicle: steriod suspending solution) was 98 % of control and the T/C (dose: 2.5 mg/kg/injection, schedule: Q01DX Z (sc), vehicle: steriod suspending solution) was 103 % of control. For the same compound, the T/C (dose: 5.0 mg/kg/injection, schedule: Q01DX Z (sc), vehicle: steriod suspending solution) was 90 % of control, the T/C (dose: 10.0 mg/kg/injection, schedule: Q01DX Z (sc), vehicle: steriod suspending solution) was 119 % of control and the T/C (dose: 20.0 mg/kg/injection, schedule: Q01DX Z (sc), vehicle: steriod suspending solution) was 87 % of control.

With `CC[C@@H](c1ccc(O)cc1)[C@@H](CC)c1ccc(O)cc1` the T/C [12] was 96 % of control, the T/C (dose: 31.25 mg/kg/injection, schedule: Q01DX Z (sc), vehicle: steriod suspending solution) was 93 % of control and the T/C [13] was 96 % of control. The T/C [14] was 104 % of control and the T/C (dose: 1000.0 mg/kg/injection, schedule: Q01DX Z (sc), vehicle: steriod suspending solution) was 95 % of control.

With `CS(=O)(=O)OCC(O)C(O)COS(C)(=O)=O` (configuration not stated) the T/C [9] was 96 % of control, the T/C [10] was 111 % of control and the T/C [11] was 102 % of control.

In the case of `S=P(N1CC1)(N1CC1)N1CC1`, the T/C (dose: 0.37 mg/kg/injection, schedule: Q01DX Z (ip), vehicle: saline) was 107 % of control, the T/C (dose: 0.75 mg/kg/injection, schedule: Q01DX Z (ip), vehicle: saline) was 109 % of control and the T/C (dose: 1.5 mg/kg/injection, schedule: Q01DX Z (ip), vehicle: saline) was 104 % of control. For the same compound, the T/C (dose: 3.0 mg/kg/injection, schedule: Q01DX Z (ip), vehicle: saline) was 112 % of control.

`C[C@]12CCC(=O)C=C1CC[C@@H]1[C@@H]2CC[C@@]2(C)[C@H]1CC[C@]2(C)O` was tested, and the T/C (dose: 0.5 mg/kg/injection, schedule: Q01DX Z (sc), vehicle: steriod suspending solution) was 117 % of control, the T/C (dose: 1.0 mg/kg/injection, schedule: Q01DX Z (sc), vehicle: steriod suspending solution) was 96 % of control and the T/C (dose: 2.0 mg/kg/injection, schedule: Q01DX Z (sc), vehicle: steriod suspending solution) was 121 % of control. The T/C (dose: 4.0 mg/kg/injection, schedule: Q01DX Z (sc), vehicle: steriod suspending solution) was 116 % of control, the T/C (dose: 8.0 mg/kg/injection, schedule: Q01DX Z (sc), vehicle: steriod suspending solution) was 118 % of control and the T/C [12] was 116 % of control. The T/C (dose: 31.0 mg/kg/injection, schedule: Q01DX Z (sc), vehicle: steriod suspending solution) was 116 % of control, the T/C (dose: 62.5 mg/kg/injection, schedule: Q01DX Z (sc), vehicle: steriod suspending solution) was 106 % of control and 111 % of control and the T/C [13] was 106 % of control. For the same compound, the T/C (dose: 250.0 mg/kg/injection, schedule: Q01DX Z (sc), vehicle: steriod suspending solution) was 109 % of control and the T/C [14] was 100 % of control.

For `CCCCNc1ncnc2c1cnn2C`, the T/C (dose: 4.0 mg/kg/injection, schedule: Q01DX Z (ip), vehicle: carboxymethylcellulose (CMC)) was 86 % of control, the T/C [15] was 86 % of control and the T/C [7] was 96 % of control. For the same compound, the T/C [4] was 101 % of control and the T/C [5] was 93 % of control.

With `Cc1cc(N(CCCl)CCCl)ccc1N=Nc1ccccc1C(=O)O` the T/C [16] was 90 % of control, the T/C (dose: 0.23 mg/kg/injection, schedule: Q01DX Z (ip), vehicle: carboxymethylcellulose (CMC)) was 106 % of control and the T/C (dose: 0.47 mg/kg/injection, schedule: Q01DX Z (ip), vehicle: carboxymethylcellulose (CMC)) was 106 % of control. For the same compound, the T/C (dose: 0.94 mg/kg/injection, schedule: Q01DX Z (ip), vehicle: carboxymethylcellulose (CMC)) was 94 % of control.

`NC(N)=Nc1nc2ccccc2o1` was tested, and the T/C (dose: 2.0 mg/kg/injection, schedule: Q01DX Z (ip), vehicle: carboxymethylcellulose (CMC)) was 92 % of control, the T/C [15] was 90 % of control and the T/C [7] was 90 % of control. The T/C [8] was 94 % of control, the T/C (dose: 63.0 mg/kg/injection, schedule: Q01DX Z (ip), vehicle: carboxymethylcellulose (CMC)) was 94 % of control and the T/C [6] was 86 % of control.

`O=P1(N(CCCl)CCCl)NCCCO1` (configuration not stated) was tested, and the T/C (dose: 6.25 mg/kg/injection, schedule: Q01DX Z (ip), vehicle: saline) was 113 % of control and the T/C (dose: 200.0 mg/kg/injection, schedule: Q01DX Z (ip), vehicle: saline) was 107 % of control.

With `NC(=O)N(CCCl)N=O` the T/C [16] was 94 % of control, the T/C [1] was 114 % of control and the T/C (dose: 1.0 mg/kg/injection, schedule: Q01DX Z (ip), vehicle: carboxymethylcellulose (CMC)) was 110 % of control.
